# How the values were obtained:
# [1] = Oral pharmacokinetic study of Lys-Amp, Sar-Amp, hCit-Amp and hArg(NO2)-Amp (Example 14); settings: for Cmax: plasma d-amphetamine, n=5
# [2] = Intranasal pharmacokinetic study of d-amphetamine, hArg-Amp and Lys-Amp (Example 15); settings: for % Tmax: relative to d-amp
# [3] = Intravenous pharmacokinetic study of d-amphetamine, hArg-Amp and Lys-Amp (Example 16); settings: for % Tmax: relative to d-amp
# [4] = Oral pharmacokinetic study of Cit-Amp vs Lys-Amp (Example 13); settings: for % Tmax: relative to Lys-Amp
# [5] = Average results of oral pharmacokinetic studies of hArg-Amp vs Lys-Amp (Table 3); settings: relative to Lys-Amp
# [6] = Oral pharmacokinetic study of hArg-Amp vs Lys-Amp, plasma d-amphetamine by ELISA (Example 12); settings: relative to Lys-Amp
# [7] = Pharmacokinetics of d-amphetamine after parenteral (intranasal, intravenous) administration of hArg-Amp (Example 1); settings: parental routes (intranasal, intravenous)
compound,measurement,setting,value
sarcosine-d-amphetamine [Sar-Amp],Cmax,[1],45 ng/mL
"C[C@H](N)Cc1ccccc1 [d-amp, d-amphetamine]",% Tmax,[2]; intranasal,100%
same,Tmax,"[2]; male, Sprague-Dawley, rat, in vivo, inhaled or intranasal, […]",5 min
same,% Tmax,[3]; intravenous,100%
same,Tmax,"[3]; male, Sprague-Dawley, rat, in vivo, iv, […]",5 min
"C[C@@H](Cc1ccccc1)NC(=O)[C@@H](N)CCCCNC(N)=N[N+](=O)[O-] [hArg(NO2)-Amp, l-homoarginine(NO2)-d-amphetamine]",Cmax,[1],59 ng/mL
"C[C@@H](Cc1ccccc1)NC(=O)[C@@H](N)CCCNC(N)=O.Cl [Cit-Amp, 1-citrulline-d-amphetamine hydrochloride]",% Tmax,[4],25%
l-lysine-d-amphetamine [Lys-Amp],Cmax,"[4]; plasma d-amphetamine, n=5",59 ng/mL
same,% Tmax,[4],100%
same,% Tmax,[5],100%
same,% Tmax,[2]; intranasal,3600%
same,% Tmax,[3]; intravenous,100%
same,Cmax,[1],54 ng/mL
same,% Tmax,[1]; relative to Lys-Amp,100%
same,% Tmax,[6],100%
l-homocitrulline-d-amphetamine hydrochloride [hCit-Amp],Cmax,[1],57 ng/mL
"C[C@@H](Cc1ccccc1)NC(=O)[C@@H](N)CCCCN=C(N)N.Cl.Cl [hArg-Amp, l-homoarginine-d-amphetamine dihydrochloride]",% Tmax,[5],200-400%
same,Tmax,"[2]; intranasal, plasma d-amphetamine",30 min
same,% Tmax,[2]; intranasal,600%
same,Tmax,"[3]; intravenous, plasma d-amphetamine",5 m
same,% Tmax,[3]; intravenous,100%
same,release of amphetamine,[7],< 25%

# From patent publication US20090239949A1, “Polar Hydrophilic Prodrugs of Amphetamine and Other Stimulants and Processes for Making and Using the Same” (priority 2007, published 2009)
